Experimental findings from ChEMBL document CHEMBL1201862, “PubChem BioAssay data set” (2004) are described below.

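Method: 48-hour compound exposure of cells in 96-well plates, five concentrations, linear interpolation of endpoints. Here, GI50 denotes the concentration required for 50% inhibition of growth.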 Active and inactive are the calls of the source. Rule as the data show it: active = GI50 up to about 1.1 µM and inactive = higher. Where a SMILES comes first, the peptide text is derived from it. The star is where a group is joined. Boc = CC(C)(C)OC(=O)* Bounds are passed on as bounds.

Among the test systems are SN12C; HCT-116; DU-145; NCI-H460; HCT-15; NCI-H522; SF-539; UO-31; SK-MEL-2; Hs-578T; UACC-62; NCI-H23; MDA-MB-435; HT-29; SF-295; NCI/ADR-RES; SNB-75; SR; RPMI-8226; HOP-92.
Holding throughout (assay): NCI-60 cell line screen, 48 h

Turning to `O=C1NC(c2cccc3ccccc23)Nc2ccc(Cl)cc21` (stereo not given), the GI50 in the assay with SN12C was 0.00828 µM (active); with HCT-116 it was 0.000912 µM (active); in the assay with DU-145 it was 0.00452 µM (active); in the assay on NCI-H460 it was 0.0038 µM (active); in the assay on HCT-15, 0.0018 µM; in the assay with NCI-H522, 0.000546 µM (active). Further, the GI50 in the assay on SF-539 was < 0.01 µM (active); in the assay on UO-31, 0.00319 µM (active); with SK-MEL-2 it was 0.00204 µM (active); with Hs-578T, 0.000624 µM (active); in the assay with UACC-62 it was 0.000214 µM (active); in the assay on NCI-H23, 0.0579 µM (active). Also, the GI50 with MDA-MB-435 was < 0.0001 µM (active); in the assay with HT-29, 0.00166 µM (active); in the assay with SF-295, 0.000516 µM (active); in the assay on NCI/ADR-RES, 0.00111 µM (active); in the assay with SNB-75 it was 0.000164 µM (active); in the assay with SR, 0.000229 µM (active).
With `N=c1oc2cc(O)ccc2cc1C(=O)NCc1ccccc1`, the GI50 with SN12C is 19.5 µM (inactive); with HCT-116, 22.2 µM (inactive); in the assay with DU-145, 16.6 µM (inactive); in the assay with NCI-H460, 25.8 µM (inactive); in the assay on HCT-15, 27.2 µM; in the assay with NCI-H522, 16.3 µM (inactive). Also, the GI50 was 10.7 µM (inactive) in the assay on RPMI-8226; 21.9 µM (inactive) in the assay on SF-539; 25.6 µM (inactive) in the assay with UO-31; 14.4 µM (inactive) in the assay with SK-MEL-2; 15.3 µM (inactive) with Hs-578T; 19.5 µM (inactive) in the assay with NCI-H23. In addition, the GI50 in the assay on MDA-MB-435 was 17.7 µM (inactive); in the assay on HT-29, 18.8 µM (inactive); in the assay on SF-295, 35.2 µM (inactive); in the assay on NCI/ADR-RES, 19.7 µM (inactive); in the assay on SNB-75 it was 8.85 µM (inactive); in the assay on SR, 11.9 µM (inactive).
Take `CC1=C(C(=O)OC(C)C)C(c2ccccc2C(F)(F)F)C(C(=O)OC(CO[N+](=O)[O-])CO[N+](=O)[O-])=C(C)N1` (stereo not given): the GI50 in the assay with SN12C was 4.09 µM (inactive); in the assay on HCT-116 it was 3.76 µM (inactive); in the assay on DU-145 it was 16.6 µM (inactive); in the assay on NCI-H460, 5.19 µM (inactive); in the assay on HCT-15, 7.96 µM; in the assay on NCI-H522, 3.35 µM (inactive). The GI50 in the assay on RPMI-8226 was 3.94 µM (inactive); with SF-539 it was 9.48 µM (inactive); in the assay with UO-31 it was 1.95 µM (inactive); with SK-MEL-2 it was 14.1 µM (inactive); in the assay with Hs-578T it was 15.8 µM (inactive); in the assay with UACC-62, 3.99 µM (inactive). The GI50 in the assay on NCI-H23 was 12.7 µM (inactive); in the assay with MDA-MB-435, 6.28 µM (inactive); in the assay on HT-29, 5.79 µM (inactive); in the assay with SF-295, 4.21 µM (inactive); in the assay on NCI/ADR-RES it was 4.39 µM (inactive); in the assay with SNB-75, 2.21 µM (inactive). Also, in the assay on SR, the GI50 is 5 µM (inactive).
With `COC(=O)[C@@H]1[C@H]2CC[C@]3(C)[C@@H](OC(C)=O)CC[C@H]3[C@@H]2CC[C@H]1C1(C)SCCS1`, the GI50 is 18.5 µM (inactive) in the assay with SN12C; 19.6 µM (inactive) in the assay with HCT-116; 18.7 µM (inactive) with HOP-92; 35.9 µM (inactive) with DU-145; 29.3 µM (inactive) in the assay on NCI-H460; 32 µM in the assay with HCT-15. The GI50 with NCI-H522 was 30.5 µM (inactive); in the assay on RPMI-8226, 19.3 µM (inactive); in the assay on SF-539, 37 µM (inactive); in the assay on UO-31 it was 38.6 µM (inactive); in the assay with SK-MEL-2 it was 19 µM (inactive); in the assay on Hs-578T it was 23.7 µM (inactive). Besides, the GI50 was 28.2 µM (inactive) with UACC-62; 37.2 µM (inactive) in the assay with NCI-H23; 16.3 µM (inactive) with MDA-MB-435; 15 µM (inactive) in the assay with HT-29; 24.8 µM (inactive) in the assay on SF-295; 20.4 µM (inactive) in the assay with NCI/ADR-RES. In addition, in the assay with SNB-75, the GI50 is 37.2 µM (inactive).
On to `COC(=O)CNC(=O)C(Cc1ccccc1)NC(=O)C(CCSC)NC(=O)C(Cc1ccc(O)cc1)NC(=O)OC(C)(C)C` (stereo not given) (Boc-YMFG-OMe; configuration not given here), for which the GI50 in the assay on SN12C is 45.3 µM (inactive); in the assay with HCT-116 it was 54.3 µM (inactive); in the assay on HOP-92, 26.4 µM (inactive); in the assay with DU-145, > 100 µM (inactive); in the assay on NCI-H460, > 100 µM (inactive); with HCT-15 it was over 100 µM. Moreover, the GI50 in the assay on NCI-H522 was 19.4 µM (inactive); in the assay on RPMI-8226, 22.3 µM (inactive); with SF-539 it was > 100 µM (inactive); in the assay on UO-31 it was > 100 µM (inactive); in the assay on SK-MEL-2 it was 18.1 µM (inactive); in the assay with Hs-578T, > 100 µM (inactive). Moreover, the GI50 in the assay with UACC-62 is 30.1 µM (inactive); in the assay on NCI-H23, 56.1 µM (inactive); in the assay on MDA-MB-435, > 100 µM (inactive); in the assay with HT-29, 33 µM (inactive); in the assay on SF-295, > 100 µM (inactive); in the assay on NCI/ADR-RES, > 100 µM (inactive). Besides, in the assay with SNB-75, the GI50 is > 100 µM (inactive).
`O=C(O)c1ccc(Nc2ccnc3cc(Cl)ccc23)cc1O`: the GI50 in the assay on SN12C was > 100 µM (inactive); in the assay on HCT-116 it was > 100 µM (inactive); with HOP-92, > 100 µM (inactive); in the assay on DU-145 it was > 100 µM (inactive); with NCI-H460 it was > 100 µM (inactive); in the assay on HCT-15 it was over 100 µM. In addition, the GI50 in the assay on NCI-H522 is > 100 µM (inactive); in the assay on RPMI-8226, > 100 µM (inactive); with SF-539 it was 11.1 µM (inactive); in the assay on UO-31, > 100 µM (inactive); in the assay with SK-MEL-2, > 100 µM (inactive); in the assay with Hs-578T, > 100 µM (inactive). The GI50 with UACC-62, in the assay on NCI-H23, in the assay with MDA-MB-435, in the assay on HT-29, with SF-295 and in the assay on NCI/ADR-RES was > 100 µM (inactive) each time. The GI50 in the assay on SNB-75 is > 100 µM (inactive).
On to `CN(C)N1C(=O)c2ccccc2NC1c1ccccc1` (stereo not given), for which the GI50 in the assay with SN12C is > 100 µM (inactive); with HCT-116, > 100 µM (inactive); in the assay on HOP-92 it was > 100 µM (inactive); in the assay with DU-145 it was > 100 µM (inactive); with NCI-H460, > 100 µM (inactive); in the assay on HCT-15 it was over 100 µM. Also, the GI50 with NCI-H522, in the assay on RPMI-8226, with SF-539, in the assay on UO-31, in the assay with SK-MEL-2 and in the assay on Hs-578T was > 100 µM (inactive) each time. Moreover, the GI50 in the assay on UACC-62, in the assay on NCI-H23, with MDA-MB-435, in the assay on HT-29, in the assay with SF-295 and with NCI/ADR-RES was > 100 µM (inactive) throughout. Also, the GI50 in the assay with SNB-75 is > 100 µM (inactive).
In the case of `CCn1ncc2c1nc(-c1ccccc1)c[n+]2[O-]`, the GI50 in the assay with SN12C was > 100 µM (inactive); in the assay on HCT-116 it was 63.7 µM (inactive); in the assay with DU-145 it was 5.82 µM (inactive); in the assay with NCI-H460, > 100 µM (inactive); in the assay on HCT-15, over 100 µM; in the assay on NCI-H522 it was 90.4 µM (inactive). In addition, the GI50 was > 100 µM (inactive) with RPMI-8226; > 100 µM (inactive) with SF-539; 62.8 µM (inactive) in the assay on UO-31; > 100 µM (inactive) with SK-MEL-2; 61.1 µM (inactive) in the assay with Hs-578T; 6.15 µM (inactive) in the assay with UACC-62. The GI50 in the assay on NCI-H23 is > 100 µM (inactive); in the assay on MDA-MB-435, > 100 µM (inactive); in the assay with HT-29 it was > 100 µM (inactive); with SF-295 it was > 100 µM (inactive); with NCI/ADR-RES, > 100 µM (inactive); in the assay on SNB-75, 36.9 µM (inactive). In addition, the GI50 in the assay with SR was > 100 µM (inactive).
